Legend:
Format in all cases: in vivo
[1] = tested on: peripheral blood lymphocyte number; experiment: Peripheral blood lymphocyte number decreasing action in rat; settings: male F344 rats, oral, 24 hr after administration, read-out: ED50 (dose necessary for reducing the lymphocyte count of the vehicle group (100%) by 50%)
heart rate in rat = experiment: Action on heart rate in rat (telemetry, oral administration); settings: male Crl:CD(SD) rats, up to the dose of 30 mg/kg body weight, measured to 24 hr after administration
Procedure: Action on Heart Rate in Rat
Male Crl:CD(SD) rats were anesthetized by intraperitoneal administration of Nembutal (manufactured by Dainippon Sumitomo Pharma Co., Ltd.), and a pressure sensor connected to a telemetry transmitter (TL11M2-C50-PTX, manufactured by Data Sciences International) was inserted into the abdominal aorta and a transmitter was subcutaneously placed in the abdomen. The blood pressure and heart rate data were recorded by an analysis software (Dataquest A.R.T., manufactured by Data Sciences International) via a receiver (RPC-1, manufactured by Data Sciences International). After confirmation of recovery of circadian rhythm of the heart rate, the rats were subjected to the experiment. The compound of the present invention was suspended in 0.5% hydroxypropylmethylcellulose (manufactured by Shin-Etsu Chemical Co., Ltd.) and orally administered. The heart rate was measured from 72 hr before the administration to 24 hr after the administration.

[2] = tested on: peripheral blood lymphocyte number; experiment: Peripheral blood lymphocyte number decreasing action in mouse; settings: ip, male BALB/cAnNCrj mice, intraperitoneal, 24 hr after administration, read-out: ED50 (dose necessary for reducing the lymphocyte count of the vehicle group (100%) by 50%)
[3] = tested on: heart rate in rat under anesthesia; experiment: Action on heart rate in rat under anesthesia (intravenous administration); settings: anesthetized male Sprague-Dawley (IGS) rats, intravenous over 30 sec, up to the dose of 0.03 mg/kg body weight, 1-15 minutes after administration
Procedure: Action on Heart Rate in Rat Under Anesthesia
Male Sprague-Dawley (IGS) rats were anesthetized by intraperitoneal administration of Nembutal (manufactured by Dainippon Sumitomo Pharma Co., Ltd.), and fixed at the dorsal position. Electrodes were mounted on four limbs, and the electrocardiogram was measured according to Standard Limb Lead II using an electrocardiogram amplifier (AC-601G, manufactured by NIHON KOHDEN CORPORATION). With the electrocardiographic wave as a trigger, the heart rate was measured with an instantaneous heart rate unit (AT-601G, manufactured by NIHON KOHDEN CORPORATION). The test compound was dissolved in 20% cyclodextrin (manufactured by Nihon Shokuhin Kako Co., Ltd.) and intravenously administered at a dose of 0.001-10 mg/kg body weight over 30 sec. The heart rate was measured before administration, and 1, 2, 3, 4, 5, 10 and 15 minutes after the administration.

Compound: Cl.NC(CO)(CO)CCc1ccc(OCCCc2ccc(C(F)(F)F)cc2)c(C(F)(F)F)c1 [Compound 11-4, 2-amino-2-(2-{3-trifluoromethyl-4-[3-(4-trifluoromethylphenyl)propoxy]phenyl}ethyl)propane-1,3-diol hydrochloride]
- ED50 [1]: 0.09 mg/kg
- Effect on heart rate (heart rate in rat): did not reduce the heart rate
- ED50 [2]: 0.06 mg/kg

Compound: Cl.NC(CO)(CO)CCc1ccc(OCCCc2cccc(C(F)(F)F)c2)c(C(F)(F)F)c1 [Compound 12-4, 2-amino-2-(2-{3-trifluoromethyl-4-[3-(3-trifluoromethylphenyl)propoxy]phenyl}ethyl)propane-1,3-diol hydrochloride]
- ED50 [1]: 0.11 mg/kg
- Effect on heart rate (heart rate in rat): did not reduce the heart rate
- ED50 [2]: 0.04 mg/kg

Compound: Cc1cccc(CCCOc2ccc(CCC(N)(CO)CO)cc2C(F)(F)F)c1.Cl [Compound 15-4, 2-amino-2-(2-{4-[3-(3-methylphenyl)propoxy]-3-trifluoromethylphenyl}ethyl)propane-1,3-diol hydrochloride]
- ED50 [1]: 0.05 mg/kg
- Effect on heart rate (heart rate in rat): did not reduce the heart rate
- ED50 [2]: 0.03 mg/kg

Compound: C[C@](N)(CO)CCc1ccc(OCCCc2ccc(C(F)(F)F)cc2)c(C(F)(F)F)c1.Cl [Compound 29-1, (R)-2-amino-2-methyl-4-{3-trifluoromethyl-4-[3-(4-trifluoromethylphenyl)propoxy]phenyl}butanol hydrochloride]
- ED50 [1]: 0.03 mg/kg

Compound: CC[C@](N)(CO)CCc1ccc(OCCCc2ccc(C(F)(F)F)cc2)c(C(F)(F)F)c1.Cl [Compound 32-1, (R)-2-amino-2-ethyl-4-{3-trifluoromethyl-4-[3-(4-trifluoromethylphenyl)propoxy]phenyl}butanol hydrochloride]
- ED50 [1]: 0.02 mg/kg

Compound: Cl.NC(CO)(CO)CCc1ccc(OCCCc2ccc(Cl)c(Cl)c2)c(C(F)(F)F)c1 [Compound 38-5, 2-amino-2-(2-{4-[3-(3,4-dichlorophenyl)propoxy]-3-trifluoromethylphenyl}ethyl)propane-1,3-diol hydrochloride]
- ED50 [1]: 0.07 mg/kg
- Effect on heart rate (heart rate in rat): did not reduce the heart rate
- ED50 [2]: 0.07 mg/kg

Compound: Cl.NC(CO)(CO)CCc1ccc(OCCCc2ccc(OC(F)(F)F)cc2)c(C(F)(F)F)c1 [Compound 52-5, 2-amino-2-(2-{4-[3-(4-trifluoromethoxyphenyl)propoxy]-3-trifluoromethylphenyl}ethyl)propane-1,3-diol hydrochloride]
- ED50 [1]: 0.05 mg/kg
- Effect on heart rate (heart rate in rat): did not reduce the heart rate
- ED50 [2]: 0.08 mg/kg

Compound: Cl.NC(CO)(CO)CCc1ccc(OCCCc2cccc(OC(F)(F)F)c2)c(C(F)(F)F)c1 [Compound 58-5, 2-amino-2-(2-{4-[3-(3-trifluoromethoxyphenyl)propoxy]-3-trifluoromethylphenyl}ethyl)propane-1,3-diol hydrochloride]
- ED50 [1]: 0.07 mg/kg
- ED50 [2]: 0.06 mg/kg

Compound: Cl.NC(CO)(CO)CCc1ccc(OCCCc2ccc(C(F)(F)F)c(F)c2)c(C(F)(F)F)c1 [Compound 68-4, 2-amino-2-(2-{4-[3-(3-fluoro-4-trifluoromethylphenyl)propoxy]-3-trifluoromethylphenyl}ethyl)propane-1,3-diol hydrochloride]
- ED50 [1]: 0.09 mg/kg
- ED50 [2]: 0.04 mg/kg

Compound: Cl.NC(CO)(CO)CCc1ccc(OC/C=C/c2cccc(Cl)c2)c(C(F)(F)F)c1 [Compound 89-2, 2-amino-2-(2-{4-[3-(3-chlorophenyl)allyloxy]-3-trifluoromethylphenyl}ethyl)propane-1,3-diol hydrochloride]
- ED50 [1]: 0.06 mg/kg
- ED50 [2]: 0.04 mg/kg

Compound: Cl.NC(/C=C/c1ccc(OCCCc2ccccc2)c(C(F)(F)F)c1)(CO)CO [Compound 100-2, (E)-2-amino-2-{2-[4-(3-phenylpropoxy)-3-trifluoromethylphenyl]vinyl}propane-1,3-diol hydrochloride]
- ED50 [1]: 0.07 mg/kg
- ED50 [2]: 0.07 mg/kg

Compound: Cl.NC(/C=C/c1ccc(OCCCc2ccccc2F)c(C(F)(F)F)c1)(CO)CO [Compound 101-2, (E)-2-amino-2-(2-{4-[3-(2-fluorophenyl)propoxy]-3-trifluoromethylphenyl}vinyl)propane-1,3-diol hydrochloride]
- ED50 [2]: 0.1 mg/kg

Compound: C[C@@](N)(CCc1ccc(OCCCc2ccc(C(F)(F)F)cc2)c(C(F)(F)F)c1)COP(=O)(O)O [Compound 132-2, (R)-phosphoric acid mono(2-amino-2-methyl-4-{3-trifluoromethyl-4-[3-(4-trifluoromethylphenyl)propoxy]phenyl}butyl)ester]
- Effect on heart rate as compared to the value before administration [3]: did not reduce the heart rate of the rat by 20% or more

Compound: NC(CO)(CCc1ccc(OCCCc2ccc(OC(F)(F)F)cc2)c(C(F)(F)F)c1)COP(=O)(O)O (stereo not drawn) [Compound 153-2, 2-amino-2-(phosphoryloxymethyl)-4-{4-[3-(4-trifluoromethoxyphenyl)propoxy]-3-trifluoromethylphenyl}butanol]
- Effect on heart rate as compared to the value before administration [3]: did not reduce the heart rate of the rat by 20% or more

Compound: NC(CO)(CCc1ccc(OCCCc2cccc(OC(F)(F)F)c2)c(C(F)(F)F)c1)COP(=O)(O)O (stereo not drawn) [Compound 158-2, 2-amino-2-(phosphoryloxymethyl)-4-{4-[3-(3-trifluoromethoxyphenyl)propoxy]-3-trifluoromethylphenyl}butanol]
- Effect on heart rate as compared to the value before administration [3]: did not reduce the heart rate of the rat by 20% or more

Compound: NC(CO)(CCc1ccc(OCCCc2ccc(C(F)(F)F)c(F)c2)c(C(F)(F)F)c1)COP(=O)(O)O (stereo not drawn) [Compound 168-2, 2-amino-4-{4-[3-(3-fluoro-4-trifluoromethylphenyl)propoxy]-3-trifluoromethylphenyl}-2-(phosphoryloxymethyl)butanol]
- Effect on heart rate as compared to the value before administration [3]: did not reduce the heart rate of the rat by 20% or more

Compound: CC[C@](N)(CO)CCc1ccc(OCCCc2ccc(Cl)c(Cl)c2)c(C(F)(F)F)c1.Cl [Compound 206-3, (R)-2-amino-4-{4-[3-(3,4-dichlorophenyl)propoxy]-3-trifluoromethylphenyl}-2-ethylbutanol hydrochloride]
- ED50 [1]: 0.05 mg/kg
- ED50 [2]: 0.02 mg/kg

Compound: CC(N)(CCc1ccc(OCCCc2ccc(Cl)c(Cl)c2)c(C(F)(F)F)c1)COP(=O)(O)O (stereo not drawn) [Compound 209-2, phosphoric acid mono(2-amino-4-{4-[3-(3,4-dichlorophenyl)propoxy]-3-trifluoromethylphenyl}-2-methylbutyl)ester]
- Effect on heart rate as compared to the value before administration [3]: did not reduce the heart rate of the rat by 20% or more

Compound: CC[C@](N)(CO)CCc1ccc(OCCCc2ccc(OC(F)(F)F)cc2)c(C(F)(F)F)c1.Cl [Compound 218-2, (R)-2-amino-2-ethyl-4-{4-[3-(4-trifluoromethoxyphenyl)propoxy]-3-trifluoromethylphenyl}butanol hydrochloride]
- ED50 [1]: 0.03 mg/kg

Compound: CC[C@](N)(CO)CCc1ccc(OCCCc2cccc(OC(F)(F)F)c2)c(C(F)(F)F)c1.Cl [Compound 220-2, (R)-2-amino-2-ethyl-4-{4-[3-(3-trifluoromethoxyphenyl)propoxy]-3-trifluoromethylphenyl}butanol hydrochloride]
- ED50 [1]: 0.03 mg/kg

Compound: CCC(N)(CCc1ccc(OCCCc2ccc(OC(F)(F)F)cc2)c(C(F)(F)F)c1)COP(=O)(O)O (stereo not drawn) [Compound 221-2, phosphoric acid mono(2-amino-2-ethyl-4-{4-[3-(4-trifluoromethoxyphenyl)propoxy]-3-trifluoromethylphenyl}butyl)ester]
- Effect on heart rate as compared to the value before administration [3]: did not reduce the heart rate of the rat by 20% or more

Compound: CCC(N)(CCc1ccc(OCCCc2cccc(OC(F)(F)F)c2)c(C(F)(F)F)c1)COP(=O)(O)O (stereo not drawn) [Compound 223-2, phosphoric acid mono(2-amino-2-ethyl-4-{4-[3-(3-trifluoromethoxyphenyl)propoxy]-3-trifluoromethylphenyl}butyl)ester]
- Effect on heart rate as compared to the value before administration [3]: did not reduce the heart rate of the rat by 20% or more

Compound: NC(/C=C/c1ccc(OCCCc2ccccc2)c(C(F)(F)F)c1)(CO)COP(=O)(O)O (stereo not drawn) [compound 192-2, (E)-2-amino-4-[4-(3-phenylpropoxy)-3-trifluoromethylphenyl]-2-(phosphoryloxymethyl)-3-butenol]
- Effect on heart rate as compared to the value before administration [3]: did not reduce the heart rate of the rat by 20% or more

Compound: NC(/C=C/c1ccc(OCCCc2ccccc2F)c(C(F)(F)F)c1)(CO)COP(=O)(O)O (stereo not drawn) [compound 193-2, (E)-2-amino-4-{4-[3-(2-fluorophenyl)propoxy]-3-trifluoromethylphenyl}-2-(phosphoryloxymethyl)-3-butenol]
- Effect on heart rate as compared to the value before administration [3]: did not reduce the heart rate of the rat by 20% or more
